Drawing on US8513251B2, “Pyridazinone compounds” (Takeda Pharmaceutical Company Limited, priority 2009, dated 2013), this text covers inhibition and IC50 for 26 compounds.

Structures are written as SMILES. Like-named read-outs stand apart in the source and are kept apart here.

In the assay the target is T1, Human PDE10A enzyme (Homo sapiens, UniProt Q9Y233).
T1 construct: Human PDE10A enzyme was generated from Sf9 or COS-7 cells transfected with the full-length gene; His-tag; made in house; host or cells: Sf9 or COS-7 cells
T1 sequence (Q9Y233 267-1055): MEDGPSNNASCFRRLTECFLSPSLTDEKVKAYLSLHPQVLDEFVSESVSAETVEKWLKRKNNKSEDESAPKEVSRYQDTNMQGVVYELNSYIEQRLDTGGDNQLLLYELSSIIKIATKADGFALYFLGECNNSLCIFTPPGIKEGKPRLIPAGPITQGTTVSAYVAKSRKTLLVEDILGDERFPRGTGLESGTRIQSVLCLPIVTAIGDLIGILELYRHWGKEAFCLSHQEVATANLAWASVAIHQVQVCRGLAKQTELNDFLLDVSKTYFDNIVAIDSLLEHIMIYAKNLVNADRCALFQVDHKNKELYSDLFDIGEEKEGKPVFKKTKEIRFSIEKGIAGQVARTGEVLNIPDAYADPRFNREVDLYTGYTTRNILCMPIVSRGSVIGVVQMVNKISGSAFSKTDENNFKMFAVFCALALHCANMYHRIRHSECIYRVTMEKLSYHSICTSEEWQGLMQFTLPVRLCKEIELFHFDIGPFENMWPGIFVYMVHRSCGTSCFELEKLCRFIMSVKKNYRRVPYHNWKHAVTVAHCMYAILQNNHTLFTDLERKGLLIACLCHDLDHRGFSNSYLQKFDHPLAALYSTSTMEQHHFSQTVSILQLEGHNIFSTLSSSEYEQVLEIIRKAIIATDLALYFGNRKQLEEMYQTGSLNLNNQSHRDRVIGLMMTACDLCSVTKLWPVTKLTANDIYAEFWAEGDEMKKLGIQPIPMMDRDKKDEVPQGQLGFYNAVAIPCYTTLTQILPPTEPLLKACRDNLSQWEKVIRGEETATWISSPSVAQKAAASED
As to the kind of experiment: PDE enzyme inhibition, SPA (Scintillation Proximity Assay). Format: biochemical. The following applies: for inhibition at 1 µM: compound at 1 μM, read-out: Percent inhibition (1 μM); for IC50: human PDE10A, [3H]cGMP substrate; for inhibition at 0.1 µM: read-out: Percent inhibition (0.1 μM). The protocol:
Human PDE10A enzyme was generated from Sf9 or COS-7 cells transfected with the full-length gene. Cloned enzyme was extracted from homogenized cell pellets. The extracted enzyme from Sf9 cells was partially purified using His-tag affinity column. The enzyme was stored at −70° C. until use. PDE activity was measured using a SPA (Scintillation Proximity Assay) (GE Healthcare). To evaluate the inhibitory activity, 10 μL of serial diluted compounds were incubated with 20 μL of PDE enzyme in assay buffer (50 mM HEPES-NaOH, 8.3 mM MgCl2, 1.7 mM EGTA, 0.1% BSA (pH 7.4)) for 30 min. at room temperature. Final concentration of DMSO in the assay was 1 percent as compounds were tested in duplicate in 96-well half-area plates (Corning). To start the reaction, 10 μL of substrate [3H] cGMP (25 or 50 nM; enclosed in SPA kits from GE Healthcare or purchased from PerkinElmer, respectively) was added for a final assay volume of 40 μL. After 60 min incubation at room temperature, yttrium SPA beads containing Zinc sulphate were added (20 μL at 6 mg/mL) to terminate the PDE reaction. After being settled for 60 min., assay plates were counted in a scintillation counter (PerkinElmer) to allow calculation of inhibition rate and IC50. Inhibition rate was calculated on the basis of 0% control wells with DMSO and 100% control wells without enzyme.

Take `NC(=O)c1ccc(-n2ccc(=O)c(-c3ccnn3-c3ccccc3)n2)cc1` [Example 49, 4-[4-Oxo-3-(1-phenyl-1H-pyrazol-5-yl)pyridazin-1(4H)-yl]benzamide]: for the setting “Table 1”, the inhibition – broadly, the relative decrease from the control value, in per cent – at 1 µM amounted to 98% and the IC50 (as a rule, the concentration at which inhibition is half-maximal) is less than 10 nM.

On to `COc1cn(-c2cccc(-c3cnn(C)c3)c2F)nc(-c2ccnn2-c2ccccc2)c1=O` [Example 113, 1-[2-Fluoro-3-(1-methyl-1H-pyrazol-4-yl)phenyl]-5-methoxy-3-(1-phenyl-1H-pyrazol-5-yl)pyridazin-4(1H)-one], for which, where the note is “Table 2, compound at 0.1 μM”, the inhibition at 0.1 µM worked out at 99%. Further, the IC50 (Table 2) is less than 10 nM. For `COc1cc(-n2cccn2)ccc1-n1cc(OC)c(=O)c(-c2ccnn2-c2ccccc2)n1` [Example 192, 5-Methoxy-1-[2-methoxy-4-(1H-pyrazol-1-yl)phenyl]-3-(1-phenyl-1H-pyrazol-5-yl)pyridazin-4(1H)-one], for the setting “Table 2, compound at 0.1 μM”, the inhibition at 0.1 µM was 101%. The compound further returned an IC50 (Table 2) of less than 10 nM. As for `COc1cn(-c2ccc(N3CCN(C)C3=O)cc2F)nc(-c2ccnn2-c2ccccc2)c1=O` [Example 178, 1-[2-fluoro-4-(3-methyl-2-oxoimidazolidin-1-yl)phenyl]-5-methoxy-3-(1-phenyl-1H-pyrazol-5-yl)pyridazin-4(1H)-one], the inhibition at 0.1 µM (Table 2, compound at 0.1 μM) is 92%. This compound also came in with an IC50 (Table 2) of less than 10 nM.

Take `N#Cc1ccc(-n2ccc(=O)c(-c3ccnn3-c3ccccc3)n2)cc1` [Example 46, 4-[4-Oxo-3-(1-phenyl-1H-pyrazol-5-yl)pyridazin-1(4H)-yl]benzonitrile]: for the setting “Table 1”, the inhibition at 1 µM was determined as 97% and the IC50 was 10 to 200 nM. Take `COc1cn(-c2ccc(N3CC(F)(F)C(F)(F)C3)cc2F)nc(-c2ccnn2-c2ccccc2)c1=O` [Example 104, 1-[2-Fluoro-4-(3,3,4,4-tetrafluoropyrrolidin-1-yl)phenyl]-5-methoxy-3-(1-phenyl-1H-pyrazol-5-yl)pyridazin-4(1H)-one]: where the note is “Table 2, compound at 0.1 μM”, the inhibition at 0.1 µM was 99%. Moreover, the half-inhibitory concentration (IC50) (Table 2) is less than 10 nM. Consider `COc1cn(-c2ccc(-n3nccc3OC(F)F)cc2F)nc(-c2ccnn2-c2ccccc2)c1=O` [Example 123, 1-{4-[5-(Difluoromethoxy)-1H-pyrazol-1-yl]-2-fluorophenyl}-5-methoxy-3-(1-phenyl-1H-pyrazol-5-yl)pyridazin-4(1H)-one], for which the inhibition at 0.1 µM (Table 2, compound at 0.1 μM) is 99%. Under “Table 2”, this compound showed an IC50 of less than 10 nM.

As to `COc1cn(-c2ccc(-n3cc(F)c(F)c3)cc2F)nc(-c2ccnn2-c2ccccc2)c1=O` [Example 119, 1-[4-(3,4-Difluoro-1H-pyrrol-1-yl)-2-fluorophenyl]-5-methoxy-3-(1-phenyl-1H-pyrazol-5-yl)pyridazin-4(1H)-one], the inhibition at 0.1 µM (Table 2, compound at 0.1 μM) is 100%. Where the note is “Table 2”, this compound returned a half-inhibitory concentration (IC50) of less than 10 nM. For `COc1cn(-c2ccc(-n3cccn3)cc2F)nc(-c2ccnn2-c2ccccc2)c1=O` [Example 120, 1-[2-Fluoro-4-(1H-pyrazol-1-yl)phenyl]-5-methoxy-3-(1-phenyl-1H-pyrazol-5-yl)pyridazin-4(1H)-one], the inhibition at 0.1 µM was 100%.

Regarding `COc1cn(-c2ccc(-c3cnn(C)c3)cc2F)nc(-c2ccnn2-c2ccccc2)c1=O` [Example 114, 1-[2-Fluoro-4-(1-methyl-1H-pyrazol-4-yl)phenyl]-5-methoxy-3-(1-phenyl-1H-pyrazol-5-yl)pyridazin-4(1H)-one], where the note is “Table 2, compound at 0.1 μM”, the inhibition at 0.1 µM was 102%. Besides, where the note is “Table 2”, the IC50 was less than 10 nM. For the compound `CCOc1cn(-c2cccc(C(F)(F)F)c2)nc(-c2ccnn2-c2ccccc2)c1=O` [Example 59, 5-Ethoxy-3-(1-phenyl-1H-pyrazol-5-yl)-1-[3-(trifluoromethyl)phenyl]pyridazin-4(1H)-one], for the setting “Table 1”, the inhibition at 1 µM stood at 96% and the half-inhibitory concentration (IC50) lay in the range of 10 to 200 nM. Regarding `COc1cn(-c2ccc(-n3cc(Cl)cn3)cc2F)nc(-c2ccnn2-c2ccccc2)c1=O` [Example 180, 1-[4-(4-Chloro-1H-pyrazol-1-yl)-2-fluorophenyl]-5-methoxy-3-(1-phenyl-1H-pyrazol-5-yl)pyridazin-4(1H)-one], for the setting “Table 2, compound at 0.1 μM”, the inhibition at 0.1 µM is 96%. The same compound came in with a 50% inhibitory concentration (IC50) (Table 2) of less than 10 nM. For `COc1cn(-c2ccc(N3CC(F)(F)C3)cc2F)nc(-c2ccnn2-c2ccccc2)c1=O` [Example 102, 1-[4-(3,3-Difluoroazetidin-1-yl)-2-fluorophenyl]-5-methoxy-3-(1-phenyl-1H-pyrazol-5-yl)pyridazin-4(1H)-one], the inhibition at 0.1 µM (Table 2, compound at 0.1 μM) was 103%. Under “Table 2”, this compound registered an IC50 of less than 10 nM. Turning to `COc1cn(-c2ccc(N3CC(C)(C)OC3=O)cc2F)nc(-c2ccnn2-c2ccccc2)c1=O` [Example 190, 1-[4-(5,5-Dimethyl-2-oxo-1,3-oxazolidin-3-yl)-2-fluorophenyl]-5-methoxy-3-(1-phenyl-1H-pyrazol-5-yl)pyridazin-4(1H)-one], the inhibition at 0.1 µM (Table 2, compound at 0.1 μM) came out at 100%. In addition, the IC50 (Table 2) was less than 10 nM. Consider `COc1cn(-c2ccc(N3CCCC3=O)cc2F)nc(-c2ccnn2-c2ccccc2)c1=O` [Example 108, 1-[2-Fluoro-4-(2-oxopyrrolidin-1-yl)phenyl]-5-methoxy-3-(1-phenyl-1H-pyrazol-5-yl)pyridazin-4(1H)-one], for which the inhibition at 0.1 µM (Table 2, compound at 0.1 μM) turned out to be 103%. Also, the IC50 (Table 2) was less than 10 nM. Consider `COc1cn(-c2ccc(-n3c(=O)ccn3C(F)F)cc2F)nc(-c2ccnn2-c2ccccc2)c1=O` [Example 124, 1-{4-[2-(Difluoromethyl)-5-oxo-2,5-dihydro-1H-pyrazol-1-yl]-2-fluorophenyl}-5-methoxy-3-(1-phenyl-1H-pyrazol-5-yl)pyridazin-4(1H)-one], for which the inhibition at 0.1 µM (Table 2, compound at 0.1 μM) was found to be 97%. This compound returned a half-maximal inhibitory concentration (IC50) (Table 2) of less than 10 nM. `COc1cn(-c2ccc(-n3cccn3)cc2F)nc(-c2ccnn2-c2ccccc2F)c1=O` [Example 163, 3-[1-(2-Fluorophenyl)-1H-pyrazol-5-yl]-1-[2-fluoro-4-(1H-pyrazol-1-yl)phenyl]-5-methoxypyridazin-4(1H)-one]: the inhibition at 0.1 µM (Table 2, compound at 0.1 μM) came out at 101%. For the same compound, the IC50 (Table 2) was less than 10 nM.

For the compound `COc1cn(-c2ccc(-c3cnn(C(F)F)c3)cc2F)nc(-c2ccnn2-c2ccccc2)c1=O` [Example 116, 1-{4-[1-(Difluoromethyl)-1H-pyrazol-4-yl]-2-fluorophenyl}-5-methoxy-3-(1-phenyl-1H-pyrazol-5-yl)pyridazin-4(1H)-one], the inhibition at 0.1 µM (Table 2, compound at 0.1 μM) is 99%. Under “Table 2”, this compound registered an IC50 of less than 10 nM. `O=c1ccn(-c2ccc(S(=O)(=O)N3CCOCC3)cc2)nc1-c1ccnn1-c1ccccc1` [Example 48, 1-[4-(Morpholin-4-ylsulfonyl)phenyl]-3-(1-phenyl-1H-pyrazol-5-yl)pyridazin-4(1H)-one]: for the setting “Table 1”, the inhibition at 1 µM came to 100% and the 50% inhibitory concentration (IC50) is less than 10 nM. As for `COc1cn(-c2ccc(N3CCOC3=O)cc2F)nc(-c2ccnn2-c2ccccc2)c1=O` [Example 109, 1-[2-Fluoro-4-(2-oxo-1,3-oxazolidin-3-yl)phenyl]-5-methoxy-3-(1-phenyl-1H-pyrazol-5-yl)pyridazin-4(1H)-one], the inhibition at 0.1 µM (Table 2, compound at 0.1 μM) came out at 99%. In addition, the IC50 (Table 2) was less than 10 nM.

With `COc1cn(-c2ccc(-n3ccnc3)cc2F)nc(-c2ccnn2-c2ccccc2)c1=O` [Example 111, 1-[2-Fluoro-4-(1H-imidazol-1-yl)phenyl]-5-methoxy-3-(1-phenyl-1H-pyrazol-5-yl)pyridazin-4(1H)-one], the inhibition at 0.1 µM (Table 2, compound at 0.1 μM) was found to be 97%. Further, the IC50 (Table 2) is less than 10 nM. For the compound `COc1cn(-c2ccc(-n3cccn3)cc2F)nc(-c2ccnn2-c2cccc(Cl)c2)c1=O` [Example 164, 3-[1-(3-Chlorophenyl)-1H-pyrazol-5-yl]-1-[2-fluoro-4-(1H-pyrazol-1-yl)phenyl]-5-methoxypyridazin-4(1H)-one], the inhibition at 0.1 µM (Table 2, compound at 0.1 μM) is 101%. For the same compound, the IC50 (Table 2) is less than 10 nM. In the case of `COc1cn(-c2ccc(N3CCC(F)(F)CC3)cc2F)nc(-c2ccnn2-c2ccccc2)c1=O` [Example 106, 1-[4-(4,4-Difluoropiperidin-1-yl)-2-fluorophenyl]-5-methoxy-3-(1-phenyl-1H-pyrazol-5-yl)pyridazin-4(1H)-one], under “Table 2, compound at 0.1 μM”, the inhibition at 0.1 µM is 100%. Moreover, where the note is “Table 2”, the IC50 was less than 10 nM. For `COc1cn(-c2ccc(N3CCC(F)(F)C3)cc2F)nc(-c2ccnn2-c2ccccc2)c1=O` [Example 103, 1-[4-(3,3-Difluoropyrrolidin-1-yl)-2-fluorophenyl]-5-methoxy-3-(1-phenyl-1H-pyrazol-5-yl)pyridazin-4(1H)-one], the inhibition at 0.1 µM (Table 2, compound at 0.1 μM) amounted to 99%. Also, the IC50 (Table 2) was less than 10 nM. Consider `COc1cn(-c2ccc(N3CC=CC3)cc2F)nc(-c2ccnn2-c2ccccc2)c1=O` [Example 179, 1-[4-(2,5-Dihydro-1H-pyrrol-1-yl)-2-fluorophenyl]-5-methoxy-3-(1-phenyl-1H-pyrazol-5-yl)pyridazin-4(1H)-one], for which the inhibition at 0.1 µM (Table 2, compound at 0.1 μM) worked out at 96%. The same compound registered an IC50 (Table 2) of less than 10 nM. Turning to `COc1cn(-c2ccc(N3CCC(C)(O)CC3)cc2F)nc(-c2ccnn2-c2ccccc2)c1=O` [Example 186, 1-[2-Fluoro-4-(4-hydroxy-4-methylpiperidin-1-yl)phenyl]-5-methoxy-3-(1-phenyl-1H-pyrazol-5-yl)pyridazin-4(1H)-one], the inhibition at 0.1 µM (Table 2, compound at 0.1 μM) is 100%. The compound also came in with an IC50 (Table 2) of less than 10 nM.
